The test system of series [1] is native quadruplex structures that regulate different oncogenes. The series can be described thus: Quadrome footprints. Format: binding. As to conditions: FIG. 4. From the text: Quadrome Footprints. Compounds may be evaluated for their ability to bind to other native quadruplex structures of biological relevance, including quadruplex control elements that regulate a range of different oncogenes.

Series [2] in a line: Pharmacokinetic study in mice, intravenous. As to conditions: 25 mg/kg intravenous. The series is classed as in vivo. From the text: Pharmacokinetic studies for evaluating pharmacokinetic properties of compounds are designed as follows. Male animals (mouse, Balb/c or rat, SD) aged five to six weeks and/or rats weighing more than 200 grams will be used for testing. One group will be untreated and samples taken to be used as a base line. The other three groups will be treated and administered a single dose of compounds by intravenous injection.
Dosing Procedure. Compounds will be administered via IV (lateral tail vein), IP or PO. Animals will be dosed in a systematic order that distributes the time of dosing similarly across all groups. For IP and PO dosing, animals will be manually restrained. For IV bolus dosing or short term IV infusion (one minute), animals will be mechanically restrained but not sedated. Disposable sterile syringes will be used for each animal/dose.
Approximately 0.5 ml of blood will be collected from the naive animals via cardiac puncture prior to the first dose. Terminal blood samples (0.5 ml) will be collected via cardiac puncture from two animals per group per time point according to the above chart. All samples will be placed in tubes containing lithium heparin as anticoagulant and mixed immediately by inverting. They will be centrifuged and the plasma flash frozen in liquid nitrogen, stored at −70° C. or greater and analyzed for drug levels.
A pharmacokinetic study to determine the time course of CX-3543 disposition was conducted in mice following intravenous administered of 25 mg/kg of CX-3543. Regular sampling was undertaken throughout a 24 hour period after IV dose administration, and the key derived pharmacokinetic parameters were derived. FIG. 11 provides the graphical representation of the pharmacokinetic profile of CX-3543 from which key parameters (Table 11) were obtained.
In FIG. 11, Cmax is the maximum CX-3543 plasma concentration attained (expressed in ng/ml); AUC0-inf is the area under the CX-3543 plasma concentration versus time curve, extrapolated from time zero to infinity (expressed in ng.hr/ml); T1/2 is the terminal half life of CX-3543 (expressed in hr); Vdss is the volume of distribution of CX-3543 at steady state (expressed in L/kg); and ClS is the systemic clearance of CX-3543 (expressed in L/hr/kg).

The subject of another series is HCT-116 xenograft. The series is described as follows: HCT-116 colorectal cancer xenograft model. The series is classed as in vivo. As to conditions: HCT-116; 10, 15 and 20 mg/kg; FIG. 8. The method, then:
Two xenograft models for inoculation were harvested and diluted to a concentration of 50×10^6 cells/ml or 100×10^6 cells/ml. Four to six week old nude mice were injected with 0.1 ml of the cell suspension containing between 5×10^6 and 10×10^6 cells. When tumors are of a suitable size compound dosing is commenced. Tumor sizes are measured throughout the treatment period with calipers and body weights also measured.
CX-3543 was tested against a number of cancer xenograft models to determine the in vivo efficacy. HCT-116 and PC-3 tumor-bearing nu/nu or MiaPaCa tumor-bearing SCID mice were administered reference and testing compounds on schedules indicated in figure legends. Tumor measurements were taken with calipers every other day or twice a week starting from the first day of dosing and body weights were measured at the same time points. Tumor volumes were calculated from the standard formula, W^2×L/2. c-MYC mRNA expression was measured with QPCR from all tumor samples following the final dose. 18S ribosomal RNA was used as a housekeeper and also quantified with QPCR.

For a further series, the system named is topoisomerase II. The series can be described thus: Topoisomerase-II poison assay. The series is classed as biochemical. The text has this: FIG. 7 illustrates data from a toposiomerase-II poison assay, using VP-16 (Etoposide) as a control Topoisomerase-II poison.
In series [3] the test system is caspase-3 activation in HCT-116. The series can be described thus: Caspase-3/7 assay. The series is classed as cell-based. The settings on record: HCT-116 cells, 24 hr, 1, 3 and 5 uM. On the procedure: The following protocol was followed (24 hr). On Day 1, seed 0.015×10^6 HCT-116 cells/50 ul/well. Incubate o/n in 37° C. CO2 incubator. On Day 2, remove 25 ul of medium from wells. Treat HCT-116 cells with 1, 3, 5 uM CX-3543. Treat positive control group with Staurosporin 0.01, 0.1, 1 uM. Keep six negative control wells treated with medium only (add 25 ul of diluted sample to appropriate wells). Incubate for 24 h at 37° C. in a CO2 incubator. On Day 3, prepare Apo-ONE Homogeneous Caspase-3/7 assay reagent (Promega) at 10 ul reagent/1 ml buffer. Add 50 ul of diluted reagent. Incubate one hour at room temp. Measure fluorescence at 485/520.

Setting [4] is: male, Balb/c, mouse, plasma, iv, 25 mg/kg.

SMILES strings stand for the structures. “Also recorded” adds a separate entry of the source. Some results are limits rather than exact numbers.

As for `CN1CCCC1CCNC(=O)c1cn2c3c(c(N4CCC(c5cnccn5)C4)c(F)cc3c1=O)Oc1cc3ccccc3cc1-2` (stereo not shown) [CX-3543], the “selectivity footprint by oncogene” value in series [1] was “selectively binds to those quadruplexes that are capable of adopting the chair/propeller conformation”. Moreover, in series [2], the ClS was 20.5 mL/min/kg. Also, in series [2] (male, Balb/c, mouse, plasma, read-out: Vdss), the Vd was 7.26 L/kg. For the same compound, in series [2] (setting [4]), the AUC(0-inf) (as a rule, total exposure, with the tail of the curve extrapolated) was approximately 20300 ng·h/mL; the Cmax (in general, the peak of the concentration-time curve) was approximately 5350 ng/mL; the half-life (as a rule, the time in which the quantity being followed falls by half) was approximately 4.6 h. Also, the tumor growth inhibition entry in the series on HCT-116 xenograft is “inhibits tumor growth; also recorded: significant tumor growth inhibition”. Also, in the series on topoisomerase II, the “inhibitory activity against topoisomerase II” value is listed as “not to be an inhibitor or poison”. For the same compound, the “concentration up to which no topoisomerase dependent strand breaks were induced” value in the series with topoisomerase II (supercoiled DNA, FIG. 7) was more than 100 µM. In series [3], the caspase-3 levels result is on record as “dose responsive increase”.

Values taken from patent US7507727B2, “Substituted quinobenzoxazine analogs and methods of using thereof” (Cylene Pharmaceuticals, Inc., priority 2003, dated 2009).
